This is an account of results in US9499493B2, “2,4-pyrimidinediamine compounds and their uses” (Rigel Pharmaceuticals, Inc., priority 2002, dated 2016).

Assay [1] concerns cultured human mast cells (CHMC). Briefly: CHMC low cell density IgE activation: tryptase assay. It counts as cell-based. The note with it: anti-IgE. An outline of the steps:
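Low-density CHMC assay: donor-adjusted 1000-1500 cells/well, MT buffer, 1 hr 37° C preincubation; anti-IgE stimulus 30 min 37° C versus MT-only controls; supernatant tryptase by substrate, 30 min RT.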

For assay [2] the test system is unchanged. Put plainly: CHMC low cell density ionomycin activation: tryptase assay. The assay is classed as cell-based.

As to `CCOC(=O)CCn1ncc2cc(Nc3ncc(F)c(Nc4ccc(Cl)cc4)n3)ccc21` [R935353, N4-(4-Chlorophenyl)-N2-[1-(2-ethoxycarbonylethyl)indazoline-5-yl]-5-fluoro-2,4-pyrimidinediamine], the IC50 in assay [1] and in assay [2] was greater than 10000 nM in each case.
As to `COc1cccc(CNC(=O)COc2ccc(Nc3ncc(Br)c(Nc4ccc(OCC(=O)NCc5cccc(OC)c5)cc4)n3)cc2)c1` [R925841, N2,N4-Bis[4-[N-(3-methoxybenzylamino)carbonylmethyleneoxy]phenyl]-5-bromo-2,4-pyrimidinediamine], the IC50 in assay [1] and in assay [2] was greater than 10000 nM each time.
`CCOC(=O)COc1cccc(Nc2ncc(F)c(Nc3ccc4c(c3)NCCO4)n2)c1` [R909242, N4-(1,4-Benzoxazin-6-yl)-N2-[3-ethoxyocarbonylmethyleneoxyphenyl]-5-fluoro-2,4-pyrimidinediamine]: the IC50 was 567 nM in assay [1] and greater than 10000 nM in assay [2].
Regarding `Cc1noc(COc2ccc(Nc3ncc(F)c(Nc4cccc(O)c4)n3)cc2)n1` [R935141, 5-Fluoro-N4-(3-hydroxyphenyl)-N2-[4-(3-methyl-1,2,4-oxadiazol-5-yl)methyleneoxyphenyl]-2,4-pyrimidinediamine], the IC50 is 727 nM in assay [1] and greater than 10000 nM in assay [2].
With `Cn1cc2cc(Nc3ncc(F)c(Nc4ccc5c(c4)OCCO5)n3)ccc2n1` [R935300, N4-(3,4-Ethyelenedioxyphenyl)-5-fluoro-N2-(2-methy-indazoline-5-yl)-2,4-pyrimidinediamine], the IC50 in assay [1] was 243 nM; in assay [2] it was greater than 10000 nM.
As to `CNC(=O)COc1cccc(Nc2ncc(F)c(Nc3ccc(-n4cnc(Cl)c4Cl)cc3)n2)c1` [R926812, N4-[4-(4,5-Dichloro-1H-imidazol-1-ylphenyl)]-5-fluoro-N2-[3-(N-methylamino)carbonylmethyleneoxyphenyl]-2,4-pyrimidinediamine], the results for the IC50 in assay [1] and in assay [2] were 185 nM and greater than 10000 nM, respectively.
On the same counts, the results for `Cn1nnc(COc2ccc(Nc3nccc(Nc4cccc(O)c4)n3)cc2)n1` [R920910, N4-(3-Hydroxyphenyl)-N2-[4-(2-methyl-1,2,3,4-tetrazol-5-yl)methyleneoxyphenyl]-2,4-pyrimidineamine] are 751 nM and 7920 nM.
Regarding `Oc1cccc(Nc2nc(Nc3ccc(OCc4nnn[nH]4)cc3)ncc2C(F)(F)F)c1` [R920846], the IC50 is greater than 10000 nM in assay [1] (Homo sapiens, Mast cell) and greater than 10000 nM in assay [2] (Homo sapiens, Mast cell).
In the case of “5-Cyano-N2-(3,4-ethylenedioxyphenyl)-N4-(methoxycarbonylbenzyl)-2,4-pyrimidinediamine [R925820]”, the IC50 in assay [1] and in assay [2] was greater than 10000 nM each time.
Turning to `COC(=O)COc1ccc(Nc2ncc(C(=O)OC)c(Nc3ccc(OCC(=O)OC(C)(C)C)cc3)n2)cc1` [R926580, N4-(4-tert-Butoxycarbonylmethyleneoxyphenyl)-N2-(4-methoxycarbonylmethyleneoxyphenyl)-5-methoxycarbonyl-2,4-pyrimidinediamine], the IC50 is 10000 nM in assay [1] and greater than 10000 nM in assay [2].
On the same counts, the results for `Cn1ncc2cc(Nc3ncc(F)c(Nc4ccc(Cl)c(Cl)c4)n3)ccc21` [R935355, N4-(3,4-Dichlorophenyl)-5-fluoro-N2-(1-methylindazoline-5-yl)-2,4-pyrimidinediamine] are greater than 10000 nM and greater than 10000 nM.
With `CNC(=O)COc1cccc(Nc2ncc(F)c(Nc3cccc(OC)c3)n2)c1` [R926738, 5-Fluoro-N4-(3-methoxyphenyl)-N2-[3-(N-methylamino)carbonylmethyleneoxyphenyl]-2,4-pyrimidinediamine], the IC50 in assay [1] is 342 nM; in assay [2] it was greater than 10000 nM.
As for `CNC(=O)COc1cccc(Nc2ncc(F)c(Nc3ccc4c(c3)OCCN4C)n2)c1` [R908705, 5-Fluoro-N2-[(N-methylacetamido-2)-3-phenoxy]-N4-(N-methyl-1,4-benzoxazin-7-yl)-2,4-pyrimidinediamine], the IC50 is 801 nM in assay [1] and greater than 10000 nM in assay [2].
Consider `O=C(COc1cccc(Nc2ncc(F)c(Nc3ccc4c(c3)NCCO4)n2)c1)NCCCO` [R909252, N4-(1,4-Benzoxazin-6-yl)-5-fluoro-N2-[3-(N-3-hydroxypropylamino)carbonylmethyleneoxyphenyl]-2,4-pyrimidinediamine], for which the IC50 in assay [1] is 248 nM; in assay [2] it was greater than 10000 nM.
For the compound `O=C(CNc1cccc(Nc2ncc(F)c(Nc3ccc4c(c3)OCCO4)n2)c1)N1CCOCC1` [R950193, N4-(3,4-Ethylenedioxyphenyl)-5-fluoro-N2-[3-(N-morpholino)carbonylmethyleneaminophenyl]-2,4-pyrimidinediamine], the results for the IC50 in assay [1] and in assay [2] were 610 nM and greater than 10000 nM, respectively.
Regarding `CNC(=O)COc1cccc(Nc2ncc(F)c(Nc3ccc4c(c3)OCC(=O)N4)n2)c1` [R908700, N4-(1,4-Benzoxazine-3-on-7-yl)-5-fluoro-N2-((N-methylacetamido-2)-3-phenoxy)-2,4-pyrimidinediamine], the IC50 was 1270 nM in assay [1] and greater than 10000 nM in assay [2].
On the same counts, the results for `CNC(=O)COc1cccc(Nc2ncc(F)c(Nc3ccc(C)c(C(F)(F)F)c3)n2)c1` [R926922, 5-Fluoro-N2-[3-[(N-methylamino)carbonylmethyleneoxy]phenyl]-N4-(4-methyl-3-trifluoromethylphenyl)-2,4-pyrimidinediamine] are 305 nM and greater than 10000 nM.
As to `CSc1nc2ccc(Nc3ncc(F)c(Nc4ccc5c(c4)OCCO5)n3)cc2s1` [R950201, N4-(3,4-Ethylenedioxyphenyl)-5-fluoro-N2-[2-(methylthio)-1,3-benzothiaz-6-yl]-2,4-pyrimidinediamine], the IC50 was 261 nM in assay [1] and greater than 10000 nM in assay [2].
On the same counts, the results for `CNC(=O)COc1cccc(Nc2ncc(F)c(Nc3cccc(NC)c3)n2)c1` [R950267, N4-(3-N-Methylaminophenyl)-5-fluoro-N2-[3-(N-methylamino)carbonylmethyleneoxyphenyl]-2,4-pyrimidinediamine] are 180 nM and greater than 10000 nM.
As to `CC(C)(C)c1cccc(Nc2nc(Nc3cccc(OCC(=O)NC(CO)CO)c3)ncc2F)c1` [R940296, N4-(3-tert-Butylpheny)-N2-[3-(N-1,3-dihydroxypropyl-2-amino)carbonylmethyleneoxyphenyl]-5-fluoro-2,4-pyrimidinediamine], the values for the IC50 in assay [1] and in assay [2] were 410 nM and greater than 10000 nM, respectively.
On to `COc1cccc(CNC(=O)COc2ccc(Nc3nc(Nc4cccc(O)c4)ncc3Br)cc2)c1` [R925843, 5-Bromo-N2-(3-hydroxyphenyl)-N4-[4-(N-3-methoxybenzylamino)carbonylmethyleneoxyphenyl]-2,4-pyrimidinediamine], for which the IC50 in assay [1] and in assay [2] was greater than 10000 nM each time.
Take `O=C(COc1ccc(Nc2ncc(F)c(Nc3ccc4c(c3)OCCO4)n2)cc1)NCCO` [R909239, N4-(3,4-Ethylendioxyphenyl)-5-fluoro-N2-[4-(N-2-hydroxyethylamino)carbonylmethyleneoxyphenyl]-2,4-pyrimidinediamine]: the IC50 is 264 nM in assay [1] and greater than 10000 nM in assay [2].
Turning to `CNC(=O)Cn1ncc2cc(Nc3ncc(F)c(Nc4ccc5c(c4)OCCO5)n3)ccc21` [R935240, N4-(3,4-Ethylenedioxyphenyl)-5-fluoro-N2-[1-(N-methylaminocarbonyl)methyl-indazoline-5-yl]-2,4-pyrimidinediamine], the IC50 in assay [1] is 606 nM; in assay [2], greater than 10000 nM.
In the case of `Cc1noc(COc2ccc(Nc3nc(Nc4ccc(OC(C)C)cc4)ncc3F)cc2)n1` [R935144, 5-Fluoro-N2-(4-isopropoxyphenyl)-N4-[4-(3-methyl-1,2,4-oxadiazol-5-yl)methyleneoxyphenyl]-2,4-pyrimidinediamine], the IC50 in assay [1] was 630 nM; in assay [2] it was greater than 10000 nM.
Take `Fc1cnc(Nc2cccc(NCCOCc3ccccc3)c2)nc1Nc1cccc(NCCOCc2ccccc2)c1` [R950174, N2,N4-Bis[3-(N-benzyloxyethyleneamino)phenyl]-5-fluoro-2,4-pyrimidinediamine]: the IC50 in assay [1] was 4620 nM; in assay [2], greater than 10000 nM.
As to `COC(=O)COc1cccc(Nc2ncc(F)c(Nc3cc(C)c(O)c(Cl)c3)n2)c1` [R945148, N4-(3-Chloro-4-hydroxy-5-methylphenyl)-5-fluoro-N2-(3-methoxycarbonylmethyleneoxyphenyl)-2,4-pyrimidinediamine], the IC50 is 307 nM in assay [1] and greater than 10000 nM in assay [2].
As for `CNC(=O)COc1cccc(Nc2ncc(F)c(Nc3ccc4c(c3)NC(C)(C)CO4)n2)c1` [R909309, N4-(3,3-Dimethyl-1,4-benzoxazin-6-yl)-5-fluoro-N2-[3-(N-methylaminocarbonylmethyleneoxy)phenyl]-2,4-pyrimidinediamine], the IC50 in assay [1] is 83 nM; in assay [2], greater than 10000 nM.
On the same counts, the results for `O=C1CN=C2COc3ccc(Nc4nc(Nc5cccc(O)c5)ncc4F)cc3N12` [R945236, N4-[2,4-Dihydro-1-oxo-4H-imidazo[2,1-c][1,4]benzoxazin-8-yl]-5-fluoro-N2-(3-hydroxyphenyl)-2,4-pyrimidinediamine] are 562 nM and greater than 10000 nM.
Regarding `CC(C)(C)c1cccc(Nc2nc(Nc3cccc(OCCO)c3)ncc2F)c1` [R940282, N4-(3-tert-Butylphenyl)-5-fluoro-N2-[3-(2-hydroxyethyleneoxy)phenyl]-2,4-pyrimidinediamine], the IC50 in assay [1] is 401 nM; in assay [2], 3020 nM.
For the compound `CCOC(=O)Cc1nnc(-c2cccc(Nc3ncc(F)c(Nc4cccc(O)c4)n3)c2)o1` [R926874], the IC50 in assay [1] was 638 nM; in assay [2], greater than 10000 nM.
Regarding `CNC(=O)C1Cc2cc(Nc3ncc(F)c(Nc4ccc5c(c4)OC(F)(F)O5)n3)ccc2O1` (racemic) [R927041, (±)-N2-[2,3-Dihydro-(N-methylamino)carbonylbenzofuran-5-yl]-N4-(3,4-difluoromethyleneoxyphenyl)-5-fluoro-2,4-pyrimidinediamine], the IC50 in assay [1] is 788 nM; in assay [2], greater than 10000 nM.
